# Measured values: US8377943B2, “2,4-diaminopyrimidine derivates as PTK2-inhibitors for the treatment of abnormal cell growth” (Boehringer Ingelheim International GmbH, priority 2008, dated 2013)
# Key:
# [1] = molecular target: T1, PTK2-phosphorylation at tyrosine 397 (pY397) (Homo sapiens, UniProt Q05397); experiment: Phospho-PTK2 (pY397) Assay in PC-3 cells; assay type: cell-based; details: PC-3 prostate carcinoma cells, 2 h incubation; read-out: PC3pPTK2 Y397 EC50
# T1 construct: endogenous in cells; host or cells: PC-3 (ATCC CRL-1435)
# T1 sequence (Q05397 whole entry): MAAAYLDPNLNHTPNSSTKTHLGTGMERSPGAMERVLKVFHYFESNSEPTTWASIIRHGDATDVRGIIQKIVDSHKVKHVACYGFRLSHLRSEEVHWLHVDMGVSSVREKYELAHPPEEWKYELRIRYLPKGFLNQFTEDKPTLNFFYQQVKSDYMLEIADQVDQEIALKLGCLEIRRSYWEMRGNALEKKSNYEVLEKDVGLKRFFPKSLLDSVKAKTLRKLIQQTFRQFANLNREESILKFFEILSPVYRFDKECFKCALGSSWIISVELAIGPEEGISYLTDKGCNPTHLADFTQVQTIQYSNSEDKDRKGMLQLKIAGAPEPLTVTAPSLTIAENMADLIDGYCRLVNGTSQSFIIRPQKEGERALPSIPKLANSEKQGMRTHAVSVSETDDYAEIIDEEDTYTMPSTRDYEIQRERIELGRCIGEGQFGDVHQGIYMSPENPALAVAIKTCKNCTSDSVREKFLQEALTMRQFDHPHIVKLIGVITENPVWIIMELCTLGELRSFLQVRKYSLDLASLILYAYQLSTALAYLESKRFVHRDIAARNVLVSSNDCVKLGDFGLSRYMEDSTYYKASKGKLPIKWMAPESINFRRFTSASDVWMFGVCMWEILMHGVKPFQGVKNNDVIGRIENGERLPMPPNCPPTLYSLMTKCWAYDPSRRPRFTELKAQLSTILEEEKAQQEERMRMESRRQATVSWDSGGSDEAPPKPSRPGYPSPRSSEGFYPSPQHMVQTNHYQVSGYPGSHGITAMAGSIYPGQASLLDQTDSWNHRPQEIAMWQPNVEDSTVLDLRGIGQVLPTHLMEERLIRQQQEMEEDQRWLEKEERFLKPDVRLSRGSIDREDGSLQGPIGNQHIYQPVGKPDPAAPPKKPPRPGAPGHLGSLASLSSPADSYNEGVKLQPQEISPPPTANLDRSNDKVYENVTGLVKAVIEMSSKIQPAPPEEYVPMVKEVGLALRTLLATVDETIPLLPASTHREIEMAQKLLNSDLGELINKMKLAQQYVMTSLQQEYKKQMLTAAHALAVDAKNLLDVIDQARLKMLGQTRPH
# Procedure: This cellular test is used to determine the influence of PTK2-inhibitors on the state of the PTK2-phosphorylation at tyrosine 397 (pY397).
# PC-3 cells (prostate carcinoma, ATCC CRL-1435) are grown in cell culture flasks (175 cm^2) with F12 Kaighn's Medium (Gibco, No.: 21127) with the addition of 10% foetal calf serum (Invitrogen, No.: 16000-044). The cultures are incubated in the incubator at 37° C. and 5% CO2 and run twice a week.
# For the test, 2×10^4 cells pro well/[…] are plated out in 96-well microtitre plates (Costar, No.: 3598) and incubated overnight in the incubator at 37° C. and 5% CO2. The test compounds (10 μL from serial dilution) are added the next day. The concentration of the test compounds usually covers a range of 50 μM and 0.8 nM. The test compounds (stock solution: 10 mM in 100% DMSO) are diluted in medium/medium 10% DMSO such that the final concentration is 1% DMSO. The cells are then incubated in the incubator at 37° C. and 5% CO2 for 2 h. Then the culture supernatant is removed and the cells are fixed with 150 μL 4% formaldehyde in D-PBS for 20 min at RT. The cell lawn is washed five times with 200 μL 0.1% Triton X-100 in D-PBS for 5 min in each case and then incubated for 90 min with blocking buffer (5% skimmed milk powder (Maresi Fixmilch) in TBST (25 mM Tris/HCl, pH 8.0, 150 mM NaCl, 0.05% Tween 20). The blocking buffer is replaced by 50 μL of the first antibody anti-phospho PTK2 [pY397] rabbit monoclonal (Invitrogen/Biosource, No.: 44-625G), which is diluted 1:200 in blocking buffer. For control purposes, alternatively a PTK2 [total] antibody (clone 4.47 mouse monoclonal, Upstate, No.: 05-537), diluted 1:400 in blocking buffer is used. This incubation is carried out at 4° C. overnight. Then the cell lawn is washed five times with 100 μL of 0.1% Tween in D-PBS for 5 min in each case and 50 μL/well of second antibody are added. In order to detect bound phospho-PTK2 [pY397] antibody a goat-anti-rabbit antibody is used which is coupled with horseradish peroxidase (Dako, No.: P0448; 1:500 dilution in blocking buffer). In order to detect bound PTK2 [total]-antibodies a rabbit-anti-mouse antibody is used, which is also coupled with horseradish peroxidase (Dako, No.: PO161; 1:1000 dilution in blocking buffer). This incubation is carried out for 1 h at RT with gentle shaking. The cell lawn is then again washed five times with 100 μL of 0.1% Tween in D-PBS for 5 min in each case. […] The EC50 values are determined from concentration-activity analyses by iterative calculation with the aid of a sigmoidal curve analysis algorithm (FIFTY, based on GraphPAD Prism Version 3.03) with a variable Hill coefficient.
# PTK2 = molecular target: T2, PTK2 (Homo sapiens, UniProt Q05397); experiment: PTK2 Enzyme Test (DELFIA assay, poly-Glu-Tyr substrate); assay type: biochemical; details: active PTK2 enzyme, 50 μM ATP in ATP Mix, 1 h pre-incubation
# T2 construct: purchased Invitrogen PV3832
# T2 sequence (Q05397 whole entry): as above
# Procedure: This test uses active PTK2 enzyme (Invitrogen Code PV3832) and poly-Glu-Tyr (4:1, Sigma P-0275) as the kinase substrate. The kinase activity is detected by means of the phosphorylation of the substrate in a DELFIA™ assay. The phosphorylated substrate is detected with the Europium-labelled phosphotyrosine antibody PY20 (Perkin Elmer, No.: AD0038).
# In order to determine concentration-activity curves with PTK2-inhibitors the compounds are serially diluted in 10% DMSO/H2O and 10 μL of each dilution are dispensed per well in a 96-well microtitre plate (clear U-shaped base plate, Greiner No. 650101) (the inhibitors are tested in duplicates) and mixed with 10 μL/well of PTK2 kinase (0.01 μg/well). PTK2 kinase is diluted accordingly beforehand with kinase dilution buffer (20 mM TRIS/HCl pH 7.5, 0.1 mM EDTA, 0.1 mM EGTA, 0.286 mM sodium orthovanadate, 10% glycerol with the addition of freshly prepared BSA (fraction V 1 mg/mL) and DTT (1 mM)). The test compound and the PTK2 kinase are pre-incubated for 1 h at RT and shaken at 500 rpm. Then 20 μL ATP Mix (30 mM TRIS/HCl pH 7.5, 0.02% Brij, 0.2 mM sodium orthovanadate, 10 mM magnesium acetate, 0.1 mM EGTA, 1× Phosphatase Inhibitor Cocktail 1 (Sigma, No.: P2850), 50 μM ATP (Sigma, No.: A3377; 15 mM stock solution)) are added. The reaction is started by the addition of 10 μL/well of poly (Glu,Tyr) substrate (25 μg/well poly (Glu,Tyr), 0.05 μg/well biotinylated poly (Glu,Tyr) dissolved in 250 mM TRIS/HCl pH 7.5, 9 mM DTT)—the final concentration of DMSO is 2%. After 1 h kinase reaction (the plates are shaken at 500 rpm), the reaction is stopped by the addition of 12 μL/well of 100 mM EDTA, pH 8. And shaken for a further 5 min at RT (500 U/min).
# 55 μL of the reaction mixture are transferred into a streptavidin plate (Strepta Well High Bind (transparent, 96-well) made by Roche, No.: 11989685001) and incubated for 1 h at RT (shaking at 500 rpm). Then the microtitre plate is washed three times with 200 μL/well D-PBS (Invitrogen, No.:14190). 100 μL of 1:2000 diluted DELFIA Eu-N1 Anti-Phosphotyrosine PY20 antibody (Perkin Elmer, No.: AD0038, 1:2000 diluted in DELFIA test buffer (Perkin Elmer, No.: 1244-111)) is then added and it is incubated for 1 h at RT (shaking at 500 rpm). Then the plate is washed three times with 200 μL/well DELFIA washing buffer (Perkin Elmer, No.: 1244-114), 200 μL/well strengthening solution (Perkin Elmer, No.: 1244-105) is added and the whole is incubated for 10 min at RT (shaking at 300 rpm).
# The time-delayed europium fluorescence is then measured in a microtitre plate reader (Victor, Perkin Elmer). The positive control consists of wells that contain solvent (2% DMSO in test buffer) and display uninhibited kinase activity. Wells that contain test buffer instead of enzyme act as a control for the background kinase activity.
# The IC50 values are determined from concentration-activity analyses by iterative calculation using a sigmoidal curve analysis algorithm (FIFTY, based on GraphPAD Prism Version 3.03) with a variable Hill coefficient.
Structure (SMILES),EC50 [1],IC50 (PTK2)
COc1ccc(CNc2nc(Nc3cc(F)c(C(=O)NC4CCN(C)CC4)cc3OC)ncc2C(F)(F)F)c(N(C)S(C)(=O)=O)c1 [Example 40],0.37 nM,1 nM
COc1cc(CNCc2ccccc2)ccc1Nc1ncc(C(F)(F)F)c(NCc2ccc(C)cc2N(C)S(C)(=O)=O)n1 [Example 67],0.7 nM,7 nM
COc1ccc(CNc2nc(Nc3ccc(NC(C)=O)c(OC)c3)ncc2C(F)(F)F)c(N(C)S(C)(=O)=O)c1 [Example 87],1 nM,1 nM
COc1cc(C(=O)N[C@@H]2CN3CCC2CC3)ccc1Nc1ncc(C(F)(F)F)c(NCc2ccc(C)cc2N(C)S(C)(=O)=O)n1 [Example 74],0.8 nM,3 nM
COc1cc(C(=O)N[C@H]2CN3CCC2CC3)ccc1Nc1ncc(C(F)(F)F)c(NCc2ccc(C)cc2N(C)S(C)(=O)=O)n1 [Example 28],0.27 nM,4 nM
COc1cc(C(=O)N[C@@H]2CCN(C)C[C@H]2F)c(F)cc1Nc1ncc(C(F)(F)F)c(NCc2ccc(C)cc2N(C)S(C)(=O)=O)n1 [Example 19],0.2 nM,3 nM
COc1ccc(CNc2nc(Nc3cc(F)c(C(=O)NC(C)(C)C)cc3OC)ncc2C(F)(F)F)c(N(C)S(C)(=O)=O)c1 [Example 128],–,22 nM
CNC(=O)c1cc(OC)c(Nc2ncc(C(F)(F)F)c(NCc3ccc(OC)cc3N(C)S(C)(=O)=O)n2)cc1F [Example 127],–,4 nM
Cc1ccc(CNc2nc(Nc3cc(F)c(N4CCNCC4)cc3F)ncc2C(F)(F)F)c(N(C)S(C)(=O)=O)c1 [Example 129],–,1 nM

# Now from value to compound:
EC50 [1],IC50 (PTK2),Structure (SMILES)
0.23 nM,1 nM,COc1cc(C(=O)N[C@H]2CCN(C)C2)c(F)cc1Nc1ncc(C(F)(F)F)c(NCc2ccc(C)cc2N(C)S(C)(=O)=O)n1 [Example 23]
0.24 nM,1 nM,CNCc1ccc(Nc2ncc(C(F)(F)F)c(NCc3ccc(C)cc3N(C)S(C)(=O)=O)n2)c(OC)c1 [Example 25]
0.74 nM,3 nM,COc1cc(C(=O)NC2CC(N3CCOCC3)C2)ccc1Nc1ncc(C(F)(F)F)c(NCc2ccc(C)cc2N(C)S(C)(=O)=O)n1 (centres unmarked) [Example 71]
0.29 nM,1 nM,COc1cc(C(=O)NC2CCC(N(C)C(C)C)CC2)ccc1Nc1ncc(C(F)(F)F)c(NCc2ccc(C)cc2N(C)S(C)(=O)=O)n1 (centres unmarked) [Example 31]
0.54 nM,1 nM,COc1cc(C(=O)NC2CCN(C)CC2)ccc1Nc1ncc(C(F)(F)F)c(NCc2ccc(F)cc2N(C)S(C)(=O)=O)n1 [Example 52]
2 nM,2 nM,COc1cc(C(=O)N[C@@H]2CCCN(C)C2)ccc1Nc1ncc(C(F)(F)F)c(NCc2ccc(C)cc2N(C)S(C)(=O)=O)n1 [Example 102]
0.6 nM,2 nM,COc1cc(CNC2CCC2)ccc1Nc1ncc(C(F)(F)F)c(NCc2ccc(C)cc2N(C)S(C)(=O)=O)n1 [Example 61]
0.93 nM,4 nM,COc1cc(C(=O)NC2CCN(C)CC2)c(Cl)cc1Nc1ncc(C(F)(F)F)c(NCc2ccc(C)cc2N(C)S(C)(=O)=O)n1 [Example 78]
0.56 nM,2 nM,COc1cc(CN2CCCC2)ccc1Nc1ncc(C(F)(F)F)c(NCc2ccc(C)cc2N(C)S(C)(=O)=O)n1 [Example 56]
0.42 nM,2 nM,COc1cc(C(=O)NC2CCN(C3CCOCC3)CC2)ccc1Nc1ncc(C(F)(F)F)c(NCc2ccc(C)cc2N(C)S(C)(=O)=O)n1 [Example 44]
–,4 nM,CCc1cc(C(=O)NC2CCOCC2)ccc1Nc1ncc(C(F)(F)F)c(NCc2ccc(C)cc2N(C)S(C)(=O)=O)n1 [Example 132]
–,1 nM,CNC(=O)c1ccc(Nc2ncc(C(F)(F)F)c(NCc3ccc(C)cc3N(C)S(C)(=O)=O)n2)c(C)c1 [Example 130]
–,4 nM,COc1cc(C(=O)N[C@@H]2CCN(C)C[C@H]2F)ccc1Nc1ncc(C(F)(F)F)c(NCc2ccc(C)cc2N(C)S(C)(=O)=O)n1 [Example 131]
